Read-outs that look alike come from different tables or passages of the source.
Assays:
[1] = test system: hepatic tissue damage secondary to pancreatitis; details: 100 μg/kg per day over one to two weeks, acute pancreatitis
Description: A patient presenting with acute pancreatitis is identified. The patient is administered 100 μg/kg histamine diphosphate per day over a period of one to two weeks. A liver biopsy is performed upon resolution of the pancreatitis.

[2] = test system: early alcohol-induced liver injury
Text: (§1) Animals and Treatments. Female Wistar rats weighing between 200 and 275 g were fed ad libitum continuously for up to 4 weeks a liquid diet (Dyets, Bethlehem, Pa. #710034) in which 35% of the calories were from corn oil, […], 5% were from vitamins and minerals, 11% were from maltose-dextrin, and 36% were from ethanol. An isocaloric maltose-dextrin diet (Dyets, #710270) was used for control. Rats were given a single dose of ethanol (5 g/kg body weight intragastrically) using an 18-gauge oral biomedical device (Popper & Sons, Inc., New Hyde Park, N.Y.) diluted in PBS (pH 7.2; GIBCO Laboratories Life Technologies Inc., Grand Island, N.Y.) every 24 hours. Control animals were gavaged with PBS alone. Either histamine dihydrochloride (0.5 mg/kg or 5.0 mg/kg; Sigma Chemical Co., St. Louis, Mo.) or vehicle (PBS, pH 7.4; GIBCO Laboratories Life Technologies Inc., Grand Island, N.Y.) was administered by subcutaneous injection twice daily for 4 weeks. Body weights of each rat were measured daily. Rats were housed in a pathogen-free facility and the institutional animal care and use committee approved the surgical procedures used in this study.
Pathological Evaluation. After 2 and 4 weeks of ethanol treatment, livers were formalin fixed, embedded in paraffin, and stained with hematoxylin and eosin to assess steatosis, inflammation, and necrosis. Liver pathology was scored in a blinded manner by an outside expert as follows:
1. Degree of steatosis, score 0-4 (based on % of hepatocytes containing lipid)
2. Degree of inflammatory cell infiltration, score 0-4
3. Degree of degeneration and necrosis, score 0-4
The points for each grade of histological evaluation were compiled into a total score for each liver.
Severity scores for each finding in each group were summed and then divided by the number of animals evaluated per group. The groups were assigned scores as follows: None=0; […].

[3] = Effect of the duration of administration of histamine; details: administered over longer than about 30 minutes
[4] = test system: drug-induced liver damage; details: oral tablet with isoniazid, six to twelve months, versus isoniazid alone
Description: An individual presenting with tuberculosis is prescribed an oral tablet comprising isoniazid and an effective dose of histamine for a period of six to twelve months. During the treatment period, the patient is monitored by a physician and lab tests to check the status of the patient's liver in response to the medication are performed.

[5] = both histamine treated groups versus ethanol alone treated group
Text: as §1

[6] = test system: early alcohol-induced liver injury; remark: listed apart in the source
Text: as §1

[7] = test system: CD3+T-cells, CD3-/56+ NK-cells and CD3+/56+ NK/T-cells; details: all cell types; induced by autologous monocytes or granulocytes; p<0.001
Text: (§2) This example illustrates the effect of histamine on the lymphocytes isolated from human liver. […] All data are the mean±s.e.m. (n=15-30 blood donors).

[8] = test system: hepatotoxic effect of comfrey; experiment: Catalase supplement in an individual consuming comfrey; type: in vivo, human; details: 8 mg/day
Description: The common herb comfrey can be administered as a poultice or tea drink to as an expectorant, demulcent, and/or tonic. However, consumption of comfrey has been linked to liver damage. In order to minimize the hepatotoxic effect of comfrey, an individual consuming comfrey as an herbal remedy is supplemented with 8 mg/day of catalase.

[9] = test system: drug-induced liver damage; details: daily oral dose of 10 mg, patient on phenytoin three times a day
Description: An epileptic taking phenytoin three times a day to control seizures is supplemented with a daily oral dose of 10 mg of histamine dihydrochloride. Prior to supplementation with histamine dihydrochloride, the epileptic experiences liver damage as a consequence of taking phenytoin as confirmed by liver biopsy.

NK-cells = details: 25 μM hydrogen peroxide, n=8, mean±s.e.m.
Text: as §2

NK/T-cells = details: 25 μM hydrogen peroxide, n=8, mean±s.e.m.
Text: as §2

T-cells = details: 25 μM hydrogen peroxide, n=8, mean±s.e.m.
Text: as §2

For histamine diphosphate, the “damage to hepatic tissue (liver biopsy)” value [1] was “prevents damage to hepatic tissue” and the “incidence of infection associated with pancreatitis” value [1] was “lowers the incidence of infection associated with pancreatitis”.

With `NCCc1c[nH]cn1` [Histamine, histamine] the liver injury ([2]; 0.5 mg/kg or 5 mg/kg twice daily s.c., highest dose most effective) was “blunted liver injury in a dose dependent manner”, the “Histologic Findings in Liver, Mean Group Severity Scores, Total Overall Score” value (“Histologic Findings in Liver” for short) ([2]; High Histamine (5.0 mg/kg s.c. twice daily), Week 2 of ethanol treatment) was 2.00 and the “Histologic Findings in Liver” value ([2]; High Histamine (5.0 mg/kg s.c. twice daily), Week 4 of ethanol treatment) was 2.57. For the same compound, the “Histologic Findings in Liver” value ([2]; Low Histamine (0.5 mg/kg s.c. twice daily), Week 2 of ethanol treatment) was 3.33, the “Histologic Findings in Liver” value ([2]; Low Histamine (0.5 mg/kg s.c. twice daily), Week 4 of ethanol treatment) was 3.17 and the “appearance of excised livers” value ([2]; histamine treated, ethanol-fed rats) was “comparative in appearance to livers from the non-ethanol treated group”. For the same compound, the efficacy [3] was “decreased or lack of efficacy”, the “liver damage by laboratory tests” value [4] was “no damage to the patient's liver” and the “recovery of body weight” value [5] was “recovered their body weights more quickly”. The “pathology scores and serum transaminase levels” value ([6]; 0.5 mg/kg or 5 mg/kg twice daily s.c.) was “normalization”, the ALT activity ([6]; preliminary results, ethanol control group 2-3 fold increase) was “somewhat normal ALT activity” and the apoptosis of lymphocytes [7] was “significantly prevented”.

In the case of catalase, the hepatic injury [8] is reported as “No hepatic injury is observed”.

For `Cl.Cl.NCCc1c[nH]cn1` [histamine dihydrochloride], the liver damage [9] was “further damage to the tissue of the liver is prevented”.

For `OO` [hydrogen peroxide], the “cells that became apoptotic” value (NK-cells) was 65±7%, the “cells that became apoptotic” value (NK/T-cells) was 78±7% and the “cells that became apoptotic” value (T-cells) was 35±5%.
